In brackets after ≈: the same amount, converted by molar mass.
Columns and labels:
Staphylococcus aureus = experiment: Antibacterial activity against Staphylococcus aureus after 18 hrs by broth dilution method; format: functional, organism-based
[1] = (§1) Cytotoxicity against human A549 cells after 48 and 72 hrs by MTT assay; format: cell-based; conditions: A549 cells
A549 = experiment: as §1; format: cell-based; conditions: a549, 72 h
[2] = test system: Mycobacterium bovis BCG str. ATCC 35743; experiment: Antitubercular activity against dormant Mycobacterium bovis BCG ATCC 35743 assessed as growth inhibition at 10 ug/mL by NR assay; format: functional
MCF7 = experiment: (§2) Cytotoxicity against human MCF7 cells after 48 and 72 hrs by MTT assay; format: cell-based; conditions: mcf7, 72 h
[3] = as §2; format: cell-based; conditions: MCF7 cells
[4] = Cytotoxicity against human MCF7 cells at 10 ug/mL by MTT assay; format: cell-based; conditions: read-out: INH
[5] = test system: Mycobacterium bovis BCG str. ATCC 35743; experiment: (§3) Antitubercular activity against dormant Mycobacterium bovis BCG ATCC 35743 by NR assay; format: functional
[6] = as §3; format: functional, Mycobacterium bovis BCG str. ATCC 35743
[7] = test system: Mycobacterium tuberculosis; experiment: Antitubercular activity against dormant Mycobacterium tuberculosis H37Ra assessed as growth inhibition at 3 ug/mL by XTT reduction menadione assay; format: functional; conditions: read-out: GI
[8] = Cytotoxicity against human A549 cells at 3 ug/mL by MTT assay; format: cell-based; conditions: read-out: INH
[9] = test system: Mycobacterium tuberculosis; experiment: Antitubercular activity against dormant Mycobacterium tuberculosis H37Ra by XTT reduction menadione assay; format: functional, organism-based
[10] = Cytotoxicity against human MCF7 cells at 3 ug/mL by MTT assay; format: cell-based; conditions: read-out: INH
[11] = Cytotoxicity against human HCT116 cells at 30 ug/mL by MTT assay; format: cell-based, HCT-116; conditions: read-out: INH
[12] = test system: Mycobacterium tuberculosis; experiment: Antitubercular activity against dormant Mycobacterium tuberculosis H37Ra assessed as growth inhibition at 10 ug/mL by XTT reduction menadione assay; format: functional; conditions: read-out: GI
[13] = test system: Mycobacterium tuberculosis; experiment: Antitubercular activity against dormant Mycobacterium tuberculosis H37Ra assessed as growth inhibition at 30 ug/mL by XTT reduction menadione assay; format: functional; conditions: read-out: GI
Pseudomonas = experiment: Antibacterial activity against Pseudomonas after 18 hrs by broth dilution method; format: functional, organism-based
[14] = Cytotoxicity against human MCF7 cells at 30 ug/mL by MTT assay; format: cell-based; conditions: read-out: INH
[15] = Cytotoxicity against human HCT116 cells at 10 ug/mL by MTT assay; format: cell-based, HCT-116; conditions: read-out: INH
Escherichia coli = experiment: Antibacterial activity against Escherichia coli after 18 hrs by broth dilution method; format: functional, organism-based
[16] = test system: Mycobacterium bovis BCG str. ATCC 35743; experiment: Antitubercular activity against dormant Mycobacterium bovis BCG ATCC 35743 assessed as growth inhibition at 30 ug/mL by NR assay; format: functional
Bacillus subtilis = experiment: Antibacterial activity against Bacillus subtilis after 18 hrs by broth dilution method; format: functional, organism-based
[17] = Cytotoxicity against human A549 cells at 30 ug/mL by MTT assay; format: cell-based; conditions: read-out: INH
[18] = Cytotoxicity against human A549 cells at 10 ug/mL by MTT assay; format: cell-based; conditions: read-out: INH
[19] = Cytotoxicity against human HCT116 cells after 48 and 72 hrs by MTT assay; format: cell-based, HCT-116; conditions: for GI50 at 72 h: HCT116 cells; for GI90: hct-116, 72 h
[20] = test system: Mycobacterium bovis BCG str. ATCC 35743; experiment: Antitubercular activity against dormant Mycobacterium bovis BCG ATCC 35743 assessed as growth inhibition at 3 ug/mL by NR assay; format: functional
[21] = Cytotoxicity against human HCT116 cells at 3 ug/mL by MTT assay; format: cell-based, HCT-116; conditions: read-out: INH

Structure (SMILES) | IC50 (Staphylococcus aureus) [µg/mL] | MIC (Staphylococcus aureus) [µg/mL] | GI50 at 72 h [1] [µg/mL] | GI90 (A549) [µg/mL] | growth inhibition (GI) [2] [%] | GI90 (MCF7) [µg/mL] | GI50 at 72 h [3] [µg/mL] | cytotoxicity at 10 ug/mL [4] [%] | IC90 [5] [µg/mL] | IC50 [6] [µg/mL] | inhibition of growth at 3 µg/mL [7] [%] | cytotoxicity at 3 ug/mL [8] [%] | IC50 [9] [µg/mL] | IC90 [9] [µg/mL] | cytotoxicity at 3 ug/mL [10] [%] | cytotoxicity at 30 ug/mL [11] [%] | inhibition of growth at 10 µg/mL [12] [%] | inhibition of growth at 30 µg/mL [13] [%] | IC50 (Pseudomonas) [µg/mL] | MIC (Pseudomonas) [µg/mL] | other results
O=C1CSC(c2ccc(F)cc2)N1c1ccccc1 (centres undefined) | > 30 | > 30 | > 100 | > 100 | 14.4 | > 100 | > 100 | 10.8 | > 30 | 20.9 (≈ 76.5 µM) | 25.6 | 0 | 6.8 (≈ 24.9 µM) | 27.5 (≈ 101 µM) | -4.1 | 23.5 | 73.2 | 92.2 | > 30 | > 30 | cytotoxicity at 30 ug/mL [14]: 33%; cytotoxicity at 10 ug/mL [15]: 14.6%; IC50 (Escherichia coli): > 30 µg/mL; MIC (Escherichia coli): > 30 µg/mL; growth inhibition (GI) [16]: 80.2%; IC50 (Bacillus subtilis): > 30 µg/mL; MIC (Bacillus subtilis): > 30 µg/mL; cytotoxicity at 30 ug/mL [17]: 0%; cytotoxicity at 10 ug/mL [18]: 0%; GI50 at 72 h [19]: > 100 µg/mL; GI90 [19]: > 100 µg/mL; growth inhibition (GI) [20]: -10.7%; cytotoxicity at 3 ug/mL [21]: -0.5%
O=C1CSC(c2ccccc2)N1c1ccc(F)cc1 (centres undefined) | > 30 | > 30 | > 100 | > 100 | 19.5 | > 100 | > 100 | 0 | > 30 | > 30 | 7.5 | -13.4 | 19.8 (≈ 72.4 µM) | > 30 | -3.9 | -6 | 31.4 | 70 | > 30 | > 30 | cytotoxicity at 30 ug/mL [14]: 7.5%; cytotoxicity at 10 ug/mL [15]: 5.3%; IC50 (Escherichia coli): > 30 µg/mL; MIC (Escherichia coli): > 30 µg/mL; growth inhibition (GI) [16]: 31%; IC50 (Bacillus subtilis): > 30 µg/mL; MIC (Bacillus subtilis): > 30 µg/mL; cytotoxicity at 30 ug/mL [17]: 11%; cytotoxicity at 10 ug/mL [18]: 0%; GI50 at 72 h [19]: > 100 µg/mL; GI90 [19]: > 100 µg/mL; growth inhibition (GI) [20]: 27.7%; cytotoxicity at 3 ug/mL [21]: -5.4%
O=C1CSC(c2ccc(Cl)cc2)N1c1ccccc1 (centres undefined) | > 30 | > 30 | > 100 | > 100 | 15.9 | > 100 | > 100 | 20.6 | > 30 | > 30 | 34.3 | -10.3 | 5.6 (≈ 19.3 µM) | > 30 | -1.4 | 3.9 | 76.8 | 82.1 | > 30 | > 30 | cytotoxicity at 30 ug/mL [14]: 40.1%; cytotoxicity at 10 ug/mL [15]: 0%; IC50 (Escherichia coli): > 30 µg/mL; MIC (Escherichia coli): > 30 µg/mL; growth inhibition (GI) [16]: 45.6%; IC50 (Bacillus subtilis): > 30 µg/mL; MIC (Bacillus subtilis): > 30 µg/mL; cytotoxicity at 30 ug/mL [17]: -20.4%; cytotoxicity at 10 ug/mL [18]: 0%; GI50 at 72 h [19]: > 100 µg/mL; GI90 [19]: > 100 µg/mL; growth inhibition (GI) [20]: -0.5%; cytotoxicity at 3 ug/mL [21]: -7.5%

Reference: ChEMBL document CHEMBL3779788, “Facile synthesis of 1,3-thiazolidin-4-ones as antitubercular agents” (Bioorg Med Chem Lett, 2016)
